Legend:
BR:BT-549 = test system: BR:BT-549; parameters: method as in earlier work; conditions: NCI-60 panel; ref [4],[5],[6],[7]; cited from earlier work
CO:SW-620 = test system: CO:SW-620; parameters: method as in earlier work; conditions: NCI-60 panel; ref [4],[5],[6],[7]; cited from earlier work
LE:CCRF-CEM = test system: LE:CCRF-CEM; parameters: method as in earlier work; conditions: NCI-60 panel; ref [4],[5],[6],[7]; cited from earlier work
LE:HL-60(TB) = test system: LE:HL-60(TB); parameters: method as in earlier work; conditions: NCI-60 panel; ref [4],[5],[6],[7]; cited from earlier work
ME:LOX IMVI = test system: ME:LOX IMVI; parameters: method as in earlier work; conditions: NCI-60 panel; ref [4],[5],[6],[7]; cited from earlier work
ME:SK-MEL-2 = test system: ME:SK-MEL-2; parameters: method as in earlier work; conditions: NCI-60 panel; ref [4],[5],[6],[7]; cited from earlier work
ME:UACC-62 = test system: ME:UACC-62; parameters: method as in earlier work; conditions: NCI-60 panel; ref [4],[5],[6],[7]; cited from earlier work
LC:NCI-H322M = test system: LC:NCI-H322M; parameters: method as in earlier work; conditions: NCI-60 panel; ref [4],[5],[6],[7]; cited from earlier work
RE:RXF 393 = test system: RE:RXF 393; parameters: method as in earlier work; conditions: NCI-60 panel; ref [4],[5],[6],[7]; cited from earlier work
RE:UO-31 = test system: RE:UO-31; parameters: method as in earlier work; conditions: NCI-60 panel; ref [4],[5],[6],[7]; cited from earlier work
AVPR2 = AVPR2 (Homo sapiens, UniProt P30518); test: gpcrMAX PathHunter beta-arrestin
CMKLR1 = CMKLR1 (Homo sapiens, UniProt Q99788); test: gpcrMAX PathHunter beta-arrestin
CRHR1 = CRHR1 (Homo sapiens, UniProt P34998); test: gpcrMAX PathHunter beta-arrestin
CRTH2 = CRTH2 (Homo sapiens, UniProt Q9Y5Y4); test: gpcrMAX PathHunter beta-arrestin
CXCR1 = CXCR1 (Homo sapiens, UniProt P25024); test: gpcrMAX PathHunter beta-arrestin
EDNRA = EDNRA (Homo sapiens, UniProt P25101); test: gpcrMAX PathHunter beta-arrestin
FSHR = FSHR (Homo sapiens, UniProt P23945); test: gpcrMAX PathHunter beta-arrestin
GIPR = GIPR (Homo sapiens, UniProt P48546); test: gpcrMAX PathHunter beta-arrestin
GLP2R = GLP2R (Homo sapiens, UniProt O95838); test: gpcrMAX PathHunter beta-arrestin
HTR1A = HTR1A (Homo sapiens, UniProt P08908); test: gpcrMAX PathHunter beta-arrestin
KISS1R = KISS1R (Homo sapiens, UniProt Q969F8); test: gpcrMAX PathHunter beta-arrestin
LTB4R = LTB4R (Homo sapiens, UniProt Q15722); test: gpcrMAX PathHunter beta-arrestin
MC4R = MC4R (Homo sapiens, UniProt P32245); test: gpcrMAX PathHunter beta-arrestin
MCHR2 = MCHR2 (Homo sapiens, UniProt Q969V1); test: gpcrMAX PathHunter beta-arrestin
P2RY12 = P2RY12 (Homo sapiens, UniProt Q9H244); test: gpcrMAX PathHunter beta-arrestin
P2RY2 = P2RY2 (Homo sapiens, UniProt P41231); test: gpcrMAX PathHunter beta-arrestin
PTGER2 = PTGER2 (Homo sapiens, UniProt P43116); test: gpcrMAX PathHunter beta-arrestin
TBXA2R = TBXA2R (Homo sapiens, UniProt P21731); test: gpcrMAX PathHunter beta-arrestin

Sequence of P2RY12 (Q9H244 whole entry, one chain of several): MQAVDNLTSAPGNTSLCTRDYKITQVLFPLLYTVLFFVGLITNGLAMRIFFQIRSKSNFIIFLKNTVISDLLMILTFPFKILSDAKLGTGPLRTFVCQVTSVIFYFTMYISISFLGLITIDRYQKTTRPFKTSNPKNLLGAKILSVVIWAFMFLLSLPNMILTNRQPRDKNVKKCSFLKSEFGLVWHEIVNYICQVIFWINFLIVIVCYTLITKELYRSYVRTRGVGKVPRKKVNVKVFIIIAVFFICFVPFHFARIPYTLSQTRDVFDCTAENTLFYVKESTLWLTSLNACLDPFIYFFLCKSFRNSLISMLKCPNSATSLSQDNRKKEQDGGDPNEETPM
Sequence of CXCR1 (P25024 whole entry): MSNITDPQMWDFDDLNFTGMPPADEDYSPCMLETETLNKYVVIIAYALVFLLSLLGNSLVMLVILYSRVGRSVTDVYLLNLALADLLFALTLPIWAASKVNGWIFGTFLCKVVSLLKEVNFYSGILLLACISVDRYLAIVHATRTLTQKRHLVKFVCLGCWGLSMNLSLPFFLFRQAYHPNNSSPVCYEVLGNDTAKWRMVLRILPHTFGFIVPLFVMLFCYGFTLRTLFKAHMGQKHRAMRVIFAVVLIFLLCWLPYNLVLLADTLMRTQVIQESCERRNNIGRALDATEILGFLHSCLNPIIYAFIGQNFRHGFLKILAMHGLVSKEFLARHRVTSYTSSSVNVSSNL
Sequence of LTB4R (Q15722 whole entry): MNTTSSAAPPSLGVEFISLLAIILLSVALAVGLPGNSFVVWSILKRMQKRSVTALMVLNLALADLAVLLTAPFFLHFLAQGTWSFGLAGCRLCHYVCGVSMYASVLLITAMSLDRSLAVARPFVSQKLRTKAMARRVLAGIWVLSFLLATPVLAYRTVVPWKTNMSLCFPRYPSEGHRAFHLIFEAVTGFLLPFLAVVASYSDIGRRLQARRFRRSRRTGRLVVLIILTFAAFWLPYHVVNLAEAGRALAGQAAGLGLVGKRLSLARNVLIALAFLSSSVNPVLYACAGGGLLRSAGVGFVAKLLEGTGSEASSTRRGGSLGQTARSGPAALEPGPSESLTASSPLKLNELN
Sequence of AVPR2 (P30518 whole entry): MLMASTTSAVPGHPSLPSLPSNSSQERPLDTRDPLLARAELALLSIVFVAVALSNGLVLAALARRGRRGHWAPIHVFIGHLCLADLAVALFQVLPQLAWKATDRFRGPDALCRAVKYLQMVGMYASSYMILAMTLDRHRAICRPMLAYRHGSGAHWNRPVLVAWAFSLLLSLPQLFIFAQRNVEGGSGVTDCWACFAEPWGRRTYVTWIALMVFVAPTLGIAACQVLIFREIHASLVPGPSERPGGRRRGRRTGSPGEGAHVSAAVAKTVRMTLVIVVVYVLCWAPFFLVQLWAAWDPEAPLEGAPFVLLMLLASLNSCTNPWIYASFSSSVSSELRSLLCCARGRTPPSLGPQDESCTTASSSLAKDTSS
Sequence of CRTH2 (Q9Y5Y4 whole entry): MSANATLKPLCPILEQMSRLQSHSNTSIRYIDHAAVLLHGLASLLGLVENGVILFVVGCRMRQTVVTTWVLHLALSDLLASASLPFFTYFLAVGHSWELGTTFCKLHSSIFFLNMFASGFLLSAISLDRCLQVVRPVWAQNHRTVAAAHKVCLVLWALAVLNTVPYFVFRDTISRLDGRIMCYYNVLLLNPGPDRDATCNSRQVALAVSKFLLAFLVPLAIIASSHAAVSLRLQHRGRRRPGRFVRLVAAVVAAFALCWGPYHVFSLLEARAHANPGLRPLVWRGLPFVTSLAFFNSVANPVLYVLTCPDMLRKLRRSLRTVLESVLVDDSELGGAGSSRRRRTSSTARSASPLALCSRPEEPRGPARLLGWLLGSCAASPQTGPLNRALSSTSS
Sequence of GIPR (P48546 22-466): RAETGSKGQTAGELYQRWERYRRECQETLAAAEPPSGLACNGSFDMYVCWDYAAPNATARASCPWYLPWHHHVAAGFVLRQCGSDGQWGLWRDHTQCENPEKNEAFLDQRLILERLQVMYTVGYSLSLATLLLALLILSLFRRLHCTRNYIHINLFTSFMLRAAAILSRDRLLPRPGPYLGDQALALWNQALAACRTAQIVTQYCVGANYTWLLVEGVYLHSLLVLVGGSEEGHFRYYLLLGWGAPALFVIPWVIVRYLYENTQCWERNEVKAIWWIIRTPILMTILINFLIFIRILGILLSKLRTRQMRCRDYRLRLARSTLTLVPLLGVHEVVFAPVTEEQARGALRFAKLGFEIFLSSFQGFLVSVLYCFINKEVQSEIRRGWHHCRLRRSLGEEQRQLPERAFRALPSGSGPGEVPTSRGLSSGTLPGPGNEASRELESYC
Sequence of EDNRA (P25101 21-427): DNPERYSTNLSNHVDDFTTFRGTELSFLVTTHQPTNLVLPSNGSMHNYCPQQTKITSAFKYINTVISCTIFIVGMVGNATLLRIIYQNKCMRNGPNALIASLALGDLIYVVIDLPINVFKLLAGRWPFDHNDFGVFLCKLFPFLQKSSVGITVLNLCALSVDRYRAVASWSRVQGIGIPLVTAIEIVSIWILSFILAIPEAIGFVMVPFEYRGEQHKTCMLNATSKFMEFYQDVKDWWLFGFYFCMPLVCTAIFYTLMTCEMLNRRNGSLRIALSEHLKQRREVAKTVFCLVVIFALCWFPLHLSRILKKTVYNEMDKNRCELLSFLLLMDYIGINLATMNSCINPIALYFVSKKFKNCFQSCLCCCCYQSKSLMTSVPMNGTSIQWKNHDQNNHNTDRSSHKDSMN
Sequence of CMKLR1 (Q99788 whole entry): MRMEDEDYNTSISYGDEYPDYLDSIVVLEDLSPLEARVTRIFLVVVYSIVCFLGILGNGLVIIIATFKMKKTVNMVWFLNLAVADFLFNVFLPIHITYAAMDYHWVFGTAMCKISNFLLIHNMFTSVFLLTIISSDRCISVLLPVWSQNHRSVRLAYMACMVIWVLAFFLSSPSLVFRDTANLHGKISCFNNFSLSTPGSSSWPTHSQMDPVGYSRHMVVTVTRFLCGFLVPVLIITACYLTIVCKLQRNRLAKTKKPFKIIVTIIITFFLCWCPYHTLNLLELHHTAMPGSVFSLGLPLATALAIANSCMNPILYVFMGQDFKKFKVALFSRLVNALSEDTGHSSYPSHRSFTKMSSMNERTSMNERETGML
Sequence of P2RY2 (P41231 whole entry): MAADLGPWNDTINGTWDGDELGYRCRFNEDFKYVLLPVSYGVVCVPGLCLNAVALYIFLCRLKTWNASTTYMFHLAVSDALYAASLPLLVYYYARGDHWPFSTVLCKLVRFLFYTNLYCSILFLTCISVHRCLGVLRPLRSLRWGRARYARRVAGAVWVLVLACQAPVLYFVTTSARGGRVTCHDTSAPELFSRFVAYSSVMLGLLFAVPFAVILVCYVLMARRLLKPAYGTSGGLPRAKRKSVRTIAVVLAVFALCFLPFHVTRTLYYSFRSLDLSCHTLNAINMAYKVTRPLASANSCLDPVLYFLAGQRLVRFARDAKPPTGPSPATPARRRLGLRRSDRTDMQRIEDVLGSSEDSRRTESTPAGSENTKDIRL
Sequence of PTGER2 (P43116 whole entry): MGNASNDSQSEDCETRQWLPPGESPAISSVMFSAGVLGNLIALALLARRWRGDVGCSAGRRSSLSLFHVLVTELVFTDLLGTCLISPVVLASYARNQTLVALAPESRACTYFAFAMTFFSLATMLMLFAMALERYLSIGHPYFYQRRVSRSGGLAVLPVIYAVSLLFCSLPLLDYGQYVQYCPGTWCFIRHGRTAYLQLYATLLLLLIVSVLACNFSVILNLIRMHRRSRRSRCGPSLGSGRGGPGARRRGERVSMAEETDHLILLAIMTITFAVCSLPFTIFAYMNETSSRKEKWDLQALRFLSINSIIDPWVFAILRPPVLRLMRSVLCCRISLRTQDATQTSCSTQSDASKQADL
Sequence of FSHR (P23945 18-695): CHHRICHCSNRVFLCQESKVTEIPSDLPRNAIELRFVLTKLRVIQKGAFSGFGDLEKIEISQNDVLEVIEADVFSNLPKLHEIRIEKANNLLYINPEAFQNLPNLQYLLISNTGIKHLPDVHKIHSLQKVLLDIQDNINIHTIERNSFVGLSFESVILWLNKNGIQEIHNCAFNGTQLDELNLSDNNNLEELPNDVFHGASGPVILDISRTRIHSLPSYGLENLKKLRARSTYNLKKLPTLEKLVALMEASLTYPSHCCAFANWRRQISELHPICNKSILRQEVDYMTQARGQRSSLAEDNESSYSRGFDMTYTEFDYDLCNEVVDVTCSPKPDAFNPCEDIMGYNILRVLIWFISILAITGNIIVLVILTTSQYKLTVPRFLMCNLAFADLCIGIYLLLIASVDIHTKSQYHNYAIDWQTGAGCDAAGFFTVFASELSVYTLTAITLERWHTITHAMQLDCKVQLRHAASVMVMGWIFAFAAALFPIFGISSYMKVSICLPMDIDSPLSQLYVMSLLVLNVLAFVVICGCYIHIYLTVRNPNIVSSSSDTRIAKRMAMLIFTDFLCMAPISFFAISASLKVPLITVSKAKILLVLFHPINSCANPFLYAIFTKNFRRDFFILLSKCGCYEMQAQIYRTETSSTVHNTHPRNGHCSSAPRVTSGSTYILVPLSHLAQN
Sequence of MCHR2 (Q969V1 whole entry): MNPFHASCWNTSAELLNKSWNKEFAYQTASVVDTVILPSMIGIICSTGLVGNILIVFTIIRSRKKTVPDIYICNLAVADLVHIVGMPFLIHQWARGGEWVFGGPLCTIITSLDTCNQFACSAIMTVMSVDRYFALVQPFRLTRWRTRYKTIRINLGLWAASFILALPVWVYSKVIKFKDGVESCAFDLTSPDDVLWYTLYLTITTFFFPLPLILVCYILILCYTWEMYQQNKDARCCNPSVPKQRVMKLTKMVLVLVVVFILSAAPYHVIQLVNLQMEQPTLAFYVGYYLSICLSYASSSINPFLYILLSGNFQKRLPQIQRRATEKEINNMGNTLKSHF

Cc1c(Cl)cccc1NC(=O)c1sc2nc3c(cc2c1N)C(=O)CCC3 [Compound 1]
GI50 (BR:BT-549): 321 nM
GI50 (CO:SW-620): 48.6 nM
GI50 (LE:CCRF-CEM): 141 nM
GI50 (LE:HL-60(TB)): 103 nM
GI50 (ME:LOX IMVI): 80.3 nM
GI50 (ME:SK-MEL-2): 47.7 nM
GI50 (ME:UACC-62): 50.3 nM
GI50 (LC:NCI-H322M): 306 nM
GI50 (RE:RXF 393): 41.8 nM
GI50 (RE:UO-31): 73.1 nM
inhibition at 10 µM (AVPR2): 13%
inhibition at 10 µM (CMKLR1): 14%
inhibition at 10 µM (CRHR1): 20%
inhibition at 10 µM (CRTH2): 13%
inhibition at 10 µM (CXCR1): 2%
inhibition at 10 µM (EDNRA): -18%
inhibition at 10 µM (FSHR): 30%
inhibition at 10 µM (GIPR): 2%
inhibition at 10 µM (GLP2R): 16%
inhibition at 10 µM (HTR1A): 3%
inhibition at 10 µM (KISS1R): 5%
inhibition at 10 µM (LTB4R): 4%
inhibition at 10 µM (MC4R): -42%
inhibition at 10 µM (MCHR2): -7%
inhibition at 10 µM (P2RY12): -25%
% Inhibition (P2RY12; antagonist mode, 10 µM): no antagonist modulation was observed
inhibition at 10 µM (P2RY2): -14%
inhibition at 10 µM (PTGER2): -5%
inhibition at 10 µM (TBXA2R): -1%

Source: article PMC6149898, “GPCR Modulation of Thieno[2,3-b]pyridine Anti-Proliferative Agents” (Molecules : A Journal of Synthetic Chemistry and Natural …, 2017)
